Tests used:
Type in all cases: in vivo
[1] = system: Brachiaria plantaginea; test: Control of weeds at post-emergence stage (Example 10)
Excerpt: (§1) The effect of application of asulam was observed on the growth of weeds at post-emergence stage for different application rates. The percentage (%) control of weeds has been evaluated and disclosed in Table 10.

[2] = system: Bidens pilosa; test: as above
Excerpt: as §1

[3] = system: Megathyrsus maximus; test: Control of Megathyrsus maximus weed at different application rates (Example 5)
Excerpt: The effect of application of asulam was observed on the growth of Megathyrsus maximus weed at 14 and 21 DAA (days after application) at different application rates. The percentage (%) control of weeds has been evaluated and disclosed in Table 5.

[4] = system: Ambrosia artemisifolia; test: Control of Ambrosia artemisifolia weed at different application rates (Example 4)
Excerpt: The effect of application of asulam was observed on the growth of Ambrosia artemisifolia weed at 28, 35 and 49 DAA (days after application) at different application rates. The percentage (%) control of weeds has been evaluated and disclosed in Table 4.

[5] = system: Raphanus raphanistrum; test: Control of Raphanus raphanistrum weed by asulam alone, with adjuvant, with additional herbicide (Example 2); details: 4500 g a.i/ha
Protocol: (§2) The effect of application of asulam alone, asulam along with an adjuvant, and asulam along with an additional herbicide was observed on the growth of Raphanus raphanistrum weed at 42, 49, 56 and 63 DAA (days after application). The percentage (%) control of weeds was evaluated to assess the efficacy of the compositions and the same has been disclosed in Table 2. Untreated control was also compared, wherein no herbicidal composition was applied and thus, no control of weeds was observed.

[6] = system: Avena strigose; test: Control of Avena strigose weed by asulam alone, with adjuvant, with additional herbicide (Example 3); details: 4500 g a.i/ha
Protocol: as §2, with “Avena strigose” for “Raphanus raphanistrum”, “3.” for “2.”

[7] = system: Avena strigose; test: Control of Avena strigose weed at different application rates (Example 8)
Excerpt: The effect of application of asulam was observed on the growth of Avena strigose weed at 28, 35 and 49 DAA (days after application) at different application rates. The percentage (%) control of weeds has been evaluated and disclosed in Table 8.

[8] = system: Raphanus raphanistrum; test: Control of Raphanus raphanistrum weed at different application rates (Example 7)
Excerpt: The effect of application of asulam was observed on the growth of Raphanus raphanistrum weed at 14, 21 and 28 DAA (days after application) at different application rates. The percentage (%) control of weeds has been evaluated and disclosed in Table 7.

With COC(=O)NS(=O)(=O)c1ccc(N)cc1 [Asulam, asulam] the “percentage (%) control of weeds” value ([1]; 1800 g a.i/ha, 35 DAA) was 92%, the “percentage (%) control of weeds” value ([1]; 1800 g a.i/ha, 49 DAA) was 83% and the “percentage (%) control of weeds” value ([1]; 2250 g a.i/ha, 28 DAA) was 95%. For the same compound, the “percentage (%) control of weeds” value ([1]; 2250 g a.i/ha, 35 DAA) was 88%, the “percentage (%) control of weeds” value ([1]; 2250 g a.i/ha, 49 DAA) was 73% and the “percentage (%) control of weeds” value ([1]; 2500 g a.i/ha, 28 DAA) was 93%. The “percentage (%) control of weeds” value ([1]; 2500 g a.i/ha, 35 DAA) was 92%, the “percentage (%) control of weeds” value ([1]; 2500 g a.i/ha, 49 DAA) was 100% and the “percentage (%) control of weeds” value ([2]; 1000 g a.i/ha, 28 DAA) was 100%. The “percentage (%) control of weeds” value ([2]; 1000 g a.i/ha, 35 DAA) was 100%, the “percentage (%) control of weeds” value ([2]; 1000 g a.i/ha, 49 DAA) was 100% and the “percentage (%) control of weeds” value ([2]; 1500 g a.i/ha, 28 DAA) was 100%. The “percentage (%) control of weeds” value ([2]; 1500 g a.i/ha, 35 DAA) was 100%, the “percentage (%) control of weeds” value ([2]; 1500 g a.i/ha, 49 DAA) was 100% and the “percentage (%) control of weeds” value ([2]; 1800 g a.i/ha, 28 DAA) was 94%. For the same compound, the “percentage (%) control of weeds” value ([2]; 1800 g a.i/ha, 35 DAA) was 97%, the “percentage (%) control of weeds” value ([2]; 1800 g a.i/ha, 49 DAA) was 97% and the “percentage (%) control of weeds” value ([2]; 2250 g a.i/ha, 28 DAA) was 93%. The “percentage (%) control of weeds” value ([2]; 2250 g a.i/ha, 35 DAA) was 95%, the “percentage (%) control of weeds” value ([2]; 2250 g a.i/ha, 49 DAA) was 94% and the “Control of Megathyrsus maximus” value ([3]; 3200 g a.i/ha, 14 DAA) was 79%. For the same compound, the “Control of Megathyrsus maximus” value ([3]; 3200 g a.i/ha, 21 DAA) was 85%, the “Control of Megathyrsus maximus” value ([3]; 3600 g a.i/ha, 14 DAA) was 80% and the “Control of Megathyrsus maximus” value ([3]; 3600 g a.i/ha, 21 DAA) was 86%. The “Control of Megathyrsus maximus” value ([3]; 4000 g a.i/ha, 14 DAA) was 76%, the “Control of Megathyrsus maximus” value ([3]; 4000 g a.i/ha, 21 DAA) was 85% and the “Control of Ambrosia Artemisifolia” value ([4]; 1200 g a.i/ha, 28 DAA) was 86%. For the same compound, the “Control of Ambrosia Artemisifolia” value ([4]; 1200 g a.i/ha, 35 DAA) was 87%, the “Control of Ambrosia Artemisifolia” value ([4]; 1200 g a.i/ha, 49 DAA) was 90% and the “Control of Ambrosia Artemisifolia” value ([4]; 1500 g a.i/ha, 28 DAA) was 91%. The “Control of Ambrosia Artemisifolia” value ([4]; 1500 g a.i/ha, 35 DAA) was 90%, the “Control of Ambrosia Artemisifolia” value ([4]; 1500 g a.i/ha, 49 DAA) was 91% and the “Control of Ambrosia Artemisifolia” value ([4]; 2250 g a.i/ha, 28 DAA) was 93%. For the same compound, the “Control of Ambrosia Artemisifolia” value ([4]; 2250 g a.i/ha, 35 DAA) was 94%, the “Control of Ambrosia Artemisifolia” value ([4]; 2250 g a.i/ha, 49 DAA) was 99% and the “Control of Ambrosia Artemisifolia” value ([4]; 2500 g a.i/ha, 28 DAA) was 92%. For the same compound, the “Control of Ambrosia Artemisifolia” value ([4]; 2500 g a.i/ha, 35 DAA) was 93%, the “Control of Ambrosia Artemisifolia” value ([4]; 2500 g a.i/ha, 49 DAA) was 99% and the “Control of Raphanus raphanistrum” value ([5]; 42 DAA) was 71.3%. For the same compound, the “Control of Raphanus raphanistrum” value ([5]; 49 DAA) was 68.8%, the “Control of Raphanus raphanistrum” value ([5]; 56 DAA) was 66.3% and the “Control of Avena strigose” value ([6]; 42 DAA) was 47.5%. The “Control of Avena strigose” value ([6]; 49 DAA) was 43.8%, the “Control of Avena strigose” value ([6]; 56 DAA) was 37.5% and the “Control of Avena strigose” value ([7]; 1200 g a.i/ha, 28 DAA) was 81%. For the same compound, the “Control of Avena strigose” value ([7]; 1200 g a.i/ha, 35 DAA) was 84%, the “Control of Avena strigose” value ([7]; 1200 g a.i/ha, 49 DAA) was 81% and the “Control of Avena strigose” value ([7]; 1500 g a.i/ha, 28 DAA) was 86%. The “Control of Avena strigose” value ([7]; 1500 g a.i/ha, 35 DAA) was 89%, the “Control of Avena strigose” value ([7]; 1500 g a.i/ha, 49 DAA) was 89% and the “Control of Avena strigose” value ([7]; 1800 g a.i/ha, 28 DAA) was 96%. For the same compound, the “Control of Avena strigose” value ([7]; 1800 g a.i/ha, 35 DAA) was 99%, the “Control of Avena strigose” value ([7]; 1800 g a.i/ha, 49 DAA) was 99% and the “Control of Avena strigose” value ([7]; 2250 g a.i/ha, 28 DAA) was 95%. For the same compound, the “Control of Avena strigose” value ([7]; 2250 g a.i/ha, 35 DAA) was 100%, the “Control of Avena strigose” value ([7]; 2250 g a.i/ha, 49 DAA) was 100% and the “Control of Avena strigose” value ([7]; 2500 g a.i/ha, 28 DAA) was 98%. The “Control of Avena strigose” value ([7]; 2500 g a.i/ha, 35 DAA) was 100%, the “Control of Avena strigose” value ([7]; 2500 g a.i/ha, 49 DAA) was 100% and the “Control of Raphanus raphanistrum” value ([8]; 1800 g a.i/ha, 14 DAA) was 61%. The “Control of Raphanus raphanistrum” value ([8]; 1800 g a.i/ha, 21 DAA) was 69%, the “Control of Raphanus raphanistrum” value ([8]; 1800 g a.i/ha, 28 DAA) was 82% and the “Control of Raphanus raphanistrum” value ([8]; 2250 g a.i/ha, 14 DAA) was 63%. For the same compound, the “Control of Raphanus raphanistrum” value ([8]; 2250 g a.i/ha, 21 DAA) was 73%, the “Control of Raphanus raphanistrum” value ([8]; 2250 g a.i/ha, 28 DAA) was 84% and the “Control of Raphanus raphanistrum” value ([8]; 2500 g a.i/ha, 14 DAA) was 66%. The “Control of Raphanus raphanistrum” value ([8]; 2500 g a.i/ha, 21 DAA) was 77% and the “Control of Raphanus raphanistrum” value ([8]; 2500 g a.i/ha, 28 DAA) was 88%.
